{
  "source": "patent US9181172B2",
  "about": "“Rhein conjugates, preparation method thereof and their uses in producing medicines for treating diabetic nephrosis, intestinal adhesion and osteoarthritis” (priority 2005, dated 2015)",
  "assay_type_in_all_cases": "in vivo",
  "key": {"rats [1]": {"system": "rats", "assay": "Formation of cotton ball granuloma in rats (Example 59 Test 2)", "experimental": "Rats were randomly divided into five groups (model control group, indomethacin group, rhein glucosamine large dose group and low dose group and rhein sodium group). Each group included 10 rats, and built models according to the method in the literature [Xu Shuyun, Methodology in Pharmacological Experiment (the 3rd version): 918]. The rats were administered by medicines from the day when starting the operation. […] The rats were killed in two weeks, and tests were performed according to the methods in the literature, the net weight of granulation was calculated, and t test was used for the intergroup comparison."}, "rats [2]": {"system": "rats", "assay": "Carrageenan-induced acute pleurisy exudation and leukoplania in rats", "details": "intraperitoneal 10 mg/kg, four hours after carrageenan", "experimental": "Forty male rats of 200±20 g weight were selected and divided into five groups, namely, model control group, indomethacin group, rhein sodium group, rhein glucosamine large dose group and small dose group. Eight rats for each group. The rats were administered with medicines by intraperitoneal administration, one hour later, the rats were induced with acute pleurisy by carrageenan according to the method in the literature [Xu Shuyun, Methodology in Pharmacological Experiment (the 3rd version): 916]. Four hours later, the rats were killed and the volume of pleural effusion and total white cell count were measured."}, "rats [3]": {"system": "rats", "assay": "Formation of granuloma in rats (arthritis example, test 4)", "details": "10 mg/kg intramuscular, two weeks", "experimental": "Rats were randomly divided into five groups (model control group, indomethacin group, rhein glucosamine large dose group and small dose group and rhein sodium group). Each group has 10 […]. According to the method in the literature [Xu Shuyun, Methodology in Pharmacological Experiment (the 3rd version): 918], the models were built, and the rats were administered with medicines since the day when starting operations. […] Two weeks later, the rats were killed and test was carried on according to the method in the literature. The net weight of granulation was calculated, and t test was used for the intergroup comparison."}, "[4]": {"system": "rabbits' ear marginal veins", "assay": "Safety of hydro-acupuncture injection: irritation of rabbits' ear marginal vein", "details": "slowly into the vein every two days, three times", "text": "In rabbits' ear marginal vein aseptic operation, rhein sodium salt, rhein arginine conjugates and 0.9% sodium chloride injection liquid were slowly filled into the veins respectively every two days for three consecutive times."}, "mice [5]": {"system": "mice", "assay": "Capillary permeability of mice", "experimental": "Each group has 12 mice, administration: 0.20 ml/10 g. Mice in the model control group were administrated with isovolumic physiologic saline."}, "mice [6]": {"system": "mice", "assay": "Intestinal propulsion in mice", "details": "intravenous injection", "experimental": "Fifty mice, male, weighting from 18 to 22 g, were randomly divided into five groups, namely, model control group, domperidone group, rhein sodium group, rhein glucosamine large dose group and low dose group.\nEach group has 10 mice respectively. The mice were fasted, but water was not prohibited, and then administered with medicines by intravenous injection. After that, tests were carried on immediately according to the methods in the literature[Xu Shuyun, Methodology in Pharmacological Experiment (the 3rd version): 1313]. The intestinal propulsive rates were calculated, and t test was used for the intergroup comparison."}, "rats [7]": {"system": "rats", "assay": "Intestinal adhesion in rats", "details": "for Rating of adhesion degree 0: number of 12 rats with completely no adhesion; for Rating of adhesion degree 0 / Rating of adhesion degree III / Rating of adhesion degree I / Rating of adhesion degree IV / Rating of adhesion degree II: 7th day; for Rating of adhesion degree III: number of 12 rats with more than two adhering zones; for Rating of adhesion degree I: number of 12 rats with one adhering zone; for Rating of adhesion degree IV: number of 12 rats with organs adhering to abdominal wall directly; for Rating of adhesion degree II: number of 12 rats with two adhering zones", "experimental": "Rats were fasted for 12 h and models were built according to the methods in the literature [Xu Shuyun, Methodology in Pharmacological Experiment (the 3rd version): 1335]. The rats were randomly divided into five groups, namely, model control group, dexamethasone group, rhein sodium group, rhein glucosamine large dose group and low dose group. Each group included 12 rats. […] The rats of the model group were administered with the same volume of NS, while the rats of the positive control group were administered with dexamethasone, administered once every two days, dose: 10 mg/kg. The administration volume was the same as the treatment group. The rats were killed on the 7th day and carried on laparotomy. Adhesion degree was classified and scored respectively. The classification and score of the observed index-adhesion degree can refer to the five-grade classification method prepared by Nair, and determine the classification standard, see Schedule 13. Intestinal adhesion classification adopts Ridit analysis. The test results are as follows (Table 14): […]"}},
  "data": [
    {"compound": "COc1ccc2c(c1)c(CC(=O)O)c(C)n2C(=O)c1ccc(Cl)cc1", "note": "[indomethacin]", "values": [
      {"measurement": "net weight of granulation", "setting": "rats [1]; 10 mg/kg intramuscular, two weeks", "result": "12.21 ± 2.43", "unit": "mg"},
      {"measurement": "Volume of exudation fluid", "setting": "rats [2]", "result": "0.26 ± 0.11"},
      {"measurement": "WBC", "setting": "rats [2]", "result": "3.01 ± 1.59 ×109/L"},
      {"measurement": "Net weight of granulation", "setting": "rats [3]", "result": "12.17 ± 2.49", "unit": "mg"}
    ]},
    {"compound": "Rhein Arginine Conjugate", "values": [
      {"measurement": "biopsy of rabbits' ear marginal vein", "setting": "[4]", "result": "normal without endothelial injuries, thrombosis and other pharmacological change"},
      {"measurement": "irritation on rabbits' ear marginal veins", "setting": "[4]; vs 0.9% sodium chloride", "result": "no irritation"},
      {"measurement": "absorbance value", "setting": "mice [5]; dosage 12 mg/kg", "result": "0.476 ± 0.096"},
      {"measurement": "absorbance value", "setting": "mice [5]; dosage 24 mg/kg", "result": "0.455 ± 0.105"},
      {"measurement": "inhibition of the formation of cotton ball granuloma compared with the model group", "setting": "rats [1]; ig, large dose and low dose groups, p<0.01", "result": "significant effect on the inhibition"},
      {"measurement": "Propulsive rate", "setting": "mice [6]; dosage 12 mg/kg", "result": "53.81 ± 8.9", "unit": "%"},
      {"measurement": "Propulsive rate", "setting": "mice [6]; dosage 24 mg/kg", "result": "66.47 ± 9.7", "unit": "%"},
      {"measurement": "abdominal adhesion ratings compared with the control group", "setting": "rats [7]; large dose and low dose groups, p<0.05", "result": "statistical significances"},
      {"measurement": "Rating of adhesion degree 0", "setting": "rats [7]; 6 mg/kg once a day", "result": 1},
      {"measurement": "Rating of adhesion degree 0", "setting": "rats [7]; 12 mg/kg once a day", "result": 3},
      {"measurement": "Rating of adhesion degree III", "setting": "rats [7]; 6 mg/kg once a day", "result": 3},
      {"measurement": "Rating of adhesion degree III", "setting": "rats [7]; 12 mg/kg once a day", "result": 2},
      {"measurement": "Rating of adhesion degree I", "setting": "rats [7]; 6 mg/kg once a day", "result": 4},
      {"measurement": "Rating of adhesion degree I", "setting": "rats [7]; 12 mg/kg once a day", "result": 5},
      {"measurement": "Rating of adhesion degree IV", "setting": "rats [7]; 6 mg/kg once a day", "result": 1},
      {"measurement": "Rating of adhesion degree IV", "setting": "rats [7]; 12 mg/kg once a day", "result": 0},
      {"measurement": "Rating of adhesion degree II", "setting": "rats [7]; 6 mg/kg once a day", "result": 3},
      {"measurement": "Rating of adhesion degree II", "setting": "rats [7]; 12 mg/kg once a day", "result": 2}
    ]}
  ]
}
